Experimental data published in ChEMBL document CHEMBL5465560, “Selectivity Literature for EUbOPEN Chemogenomic Library” (2024).

Assays:
[1] = target: T1, Phosphorylase b kinase gamma catalytic chain, liver/testis isoform (Homo sapiens) (UniProt P15735); assay: Selectivity interaction (Kinase screening (Nanosyn)) EUB0000604a PHKG2
T1 sequence (whole entry): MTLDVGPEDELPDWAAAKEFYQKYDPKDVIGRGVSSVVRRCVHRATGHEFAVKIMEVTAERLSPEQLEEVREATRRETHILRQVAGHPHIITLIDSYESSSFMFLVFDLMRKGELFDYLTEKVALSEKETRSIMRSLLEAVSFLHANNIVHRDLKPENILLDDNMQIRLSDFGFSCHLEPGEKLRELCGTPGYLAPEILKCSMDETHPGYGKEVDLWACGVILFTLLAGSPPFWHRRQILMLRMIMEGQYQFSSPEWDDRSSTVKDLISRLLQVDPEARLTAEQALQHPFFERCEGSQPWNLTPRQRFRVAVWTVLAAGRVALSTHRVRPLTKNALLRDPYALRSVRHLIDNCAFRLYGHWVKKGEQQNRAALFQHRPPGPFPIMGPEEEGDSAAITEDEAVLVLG

[2] = target: T2, Phosphatidylinositol 5-phosphate 4-kinase type-2 gamma (Homo sapiens) (UniProt Q8TBX8); assay: Selectivity interaction (ActivX KiNativ screen (kinase selectivity in THP-1 cell lysates)) EUB0000639a PIP4K2C; assay type: subcellular; conditions: lysate
T2 sequence (whole entry): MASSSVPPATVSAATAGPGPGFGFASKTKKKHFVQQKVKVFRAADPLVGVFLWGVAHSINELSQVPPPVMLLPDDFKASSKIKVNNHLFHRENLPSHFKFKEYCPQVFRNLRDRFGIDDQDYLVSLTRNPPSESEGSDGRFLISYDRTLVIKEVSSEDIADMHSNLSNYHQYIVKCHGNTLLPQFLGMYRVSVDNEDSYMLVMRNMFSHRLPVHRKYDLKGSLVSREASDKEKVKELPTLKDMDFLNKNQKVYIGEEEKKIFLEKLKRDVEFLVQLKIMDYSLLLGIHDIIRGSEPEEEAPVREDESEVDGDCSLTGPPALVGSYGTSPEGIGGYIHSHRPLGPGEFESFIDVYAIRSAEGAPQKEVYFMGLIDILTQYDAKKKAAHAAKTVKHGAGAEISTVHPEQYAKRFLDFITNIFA

[3] = target: Calcium/calmodulin-dependent protein kinase type II subunit gamma (Homo sapiens) (UniProt Q13555); assay: Selectivity interaction (KinomeScan (DiscoverX)) EUB0000229b CAMK2G; conditions: at 10 µM
[4] = target: T3, Serine/threonine-protein kinase ICK (Homo sapiens) (UniProt Q9UPZ9); assay: Selectivity interaction (KinomeScan (DiscoverX)) EUB0000092b ICK; conditions: at 10 µM
T3 sequence (whole entry): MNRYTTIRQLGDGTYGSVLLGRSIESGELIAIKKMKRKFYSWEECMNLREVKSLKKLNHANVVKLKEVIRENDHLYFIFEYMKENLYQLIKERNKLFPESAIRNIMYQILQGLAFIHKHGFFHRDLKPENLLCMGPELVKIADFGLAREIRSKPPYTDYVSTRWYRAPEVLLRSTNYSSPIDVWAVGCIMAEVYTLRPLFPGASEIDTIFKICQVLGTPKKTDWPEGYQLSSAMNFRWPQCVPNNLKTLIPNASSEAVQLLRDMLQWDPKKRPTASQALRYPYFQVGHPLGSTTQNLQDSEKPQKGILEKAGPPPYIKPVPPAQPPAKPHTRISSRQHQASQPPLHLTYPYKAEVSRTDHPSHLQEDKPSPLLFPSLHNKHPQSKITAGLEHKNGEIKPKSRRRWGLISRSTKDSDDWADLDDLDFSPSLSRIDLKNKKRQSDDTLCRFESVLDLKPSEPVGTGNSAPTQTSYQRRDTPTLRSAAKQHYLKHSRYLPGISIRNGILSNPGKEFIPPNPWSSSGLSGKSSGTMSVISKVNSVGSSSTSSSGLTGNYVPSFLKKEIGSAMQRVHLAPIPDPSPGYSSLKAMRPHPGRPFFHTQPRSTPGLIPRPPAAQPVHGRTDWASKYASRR

[5] = target: T4, Rhodopsin kinase GRK7 (Homo sapiens) (UniProt Q8WTQ7); assay: Selectivity interaction (KinomeScan (DiscoverX)) EUB0000607a GRK7; conditions: at 10 µM
T4 sequence (whole entry): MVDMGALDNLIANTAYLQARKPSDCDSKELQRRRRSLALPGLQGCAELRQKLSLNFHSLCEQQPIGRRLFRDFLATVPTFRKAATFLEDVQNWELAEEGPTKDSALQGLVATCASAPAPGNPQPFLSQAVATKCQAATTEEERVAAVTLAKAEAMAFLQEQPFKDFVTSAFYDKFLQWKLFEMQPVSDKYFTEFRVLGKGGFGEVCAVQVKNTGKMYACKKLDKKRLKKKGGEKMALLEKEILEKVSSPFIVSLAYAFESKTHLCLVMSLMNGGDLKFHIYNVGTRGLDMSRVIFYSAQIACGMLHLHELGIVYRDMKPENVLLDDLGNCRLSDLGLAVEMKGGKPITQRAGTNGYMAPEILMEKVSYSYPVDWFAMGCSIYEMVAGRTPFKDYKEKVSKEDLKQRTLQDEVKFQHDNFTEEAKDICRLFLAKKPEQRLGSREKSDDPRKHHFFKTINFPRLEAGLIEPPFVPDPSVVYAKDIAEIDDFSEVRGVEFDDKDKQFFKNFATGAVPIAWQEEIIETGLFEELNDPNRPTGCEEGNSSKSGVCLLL

[6] = target: T5, Tyrosine-protein kinase ITK/TSK (Homo sapiens) (UniProt Q08881); assay: Selectivity interaction (SelectScreen profiling (Invitrogen)) EUB0000607a ITK; conditions: at 2 µM
T5 sequence (whole entry): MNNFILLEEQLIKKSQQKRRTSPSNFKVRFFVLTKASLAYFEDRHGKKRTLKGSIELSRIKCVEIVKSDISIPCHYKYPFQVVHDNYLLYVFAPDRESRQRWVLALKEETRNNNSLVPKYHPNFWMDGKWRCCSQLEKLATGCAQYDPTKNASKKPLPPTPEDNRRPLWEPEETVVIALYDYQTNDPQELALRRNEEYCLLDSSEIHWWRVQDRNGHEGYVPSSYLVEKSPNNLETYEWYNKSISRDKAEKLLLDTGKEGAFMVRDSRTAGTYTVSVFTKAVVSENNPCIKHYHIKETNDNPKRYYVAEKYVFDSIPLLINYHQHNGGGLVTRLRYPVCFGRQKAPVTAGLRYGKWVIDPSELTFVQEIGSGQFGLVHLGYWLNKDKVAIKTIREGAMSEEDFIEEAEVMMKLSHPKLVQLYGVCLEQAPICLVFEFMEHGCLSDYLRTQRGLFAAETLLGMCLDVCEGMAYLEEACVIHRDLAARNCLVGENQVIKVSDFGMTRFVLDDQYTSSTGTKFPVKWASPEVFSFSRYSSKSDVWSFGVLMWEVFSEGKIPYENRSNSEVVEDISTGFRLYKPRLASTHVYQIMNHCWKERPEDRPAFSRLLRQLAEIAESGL

Sequence of Calcium/calmodulin-dependent protein kinase type II subunit gamma (Homo sapiens) (Q13555 whole entry): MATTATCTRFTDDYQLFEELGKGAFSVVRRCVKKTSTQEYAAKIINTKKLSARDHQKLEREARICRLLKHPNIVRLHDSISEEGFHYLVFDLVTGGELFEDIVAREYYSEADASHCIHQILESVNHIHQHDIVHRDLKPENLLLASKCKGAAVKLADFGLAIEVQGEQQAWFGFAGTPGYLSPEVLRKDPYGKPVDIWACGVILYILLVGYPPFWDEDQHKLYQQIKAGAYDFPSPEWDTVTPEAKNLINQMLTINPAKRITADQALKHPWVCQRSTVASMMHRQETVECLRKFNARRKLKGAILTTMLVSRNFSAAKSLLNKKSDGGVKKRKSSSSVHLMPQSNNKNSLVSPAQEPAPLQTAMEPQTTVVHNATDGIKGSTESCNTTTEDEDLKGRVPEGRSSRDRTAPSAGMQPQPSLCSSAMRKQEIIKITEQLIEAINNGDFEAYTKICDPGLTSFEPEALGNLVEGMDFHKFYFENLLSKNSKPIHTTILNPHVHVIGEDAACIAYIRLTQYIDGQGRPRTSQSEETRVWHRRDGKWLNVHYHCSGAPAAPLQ

`Cc1cnc(Nc2ccc(F)cc2Cl)nc1-c1c[nH]c(C(=O)N[C@H](CO)c2cccc(Cl)c2)c1` showed a % of inhibition [1] of 4%.
`CC[C@@H]1[C@H](F)C(=O)N[C@@H]1COc1nccc2cc(C(N)=O)c(OC)cc12` [ZIMLOVISERTIB] showed a % of inhibition ([2]; at 0.01 µM) of 6.3%, a % of inhibition ([2]; at 0.04 µM) of 19.8% and a % of inhibition ([2]; at 0.2 µM) of 55.9%. For the same molecule, the % of inhibition ([2]; at 1 µM) was 83.6% and the % of inhibition ([2]; at 5 µM) was 93.9%.
`COc1cc(N(C)c2ccnc3ccc(C(F)(F)F)cc23)cc(OC)c1OC` was tested, and the % binding [3] was 90%.
Work on `CCC(=O)N1CCN(c2ccc(-n3c(=O)ccc4cnc5ccc(-c6cnc7ccccc7c6)cc5c43)cc2C(F)(F)F)CC1` yielded a % of control [4] of 100%.
`CNC(=O)Nc1ccc(-c2nc(N3CC4CCC(C3)O4)c3cnn(C4CCC5(CC4)OCCO5)c3n2)cc1` gave a % of control [5] of 91% and a % of inhibition [6] of 2%.
